Where “and” joins values, the source holds several entries; their conditions need not be identical. Equal values may be shown once. Toxic doses and inconclusive results are not listed.
System: BDF1 mice, B16 melanoma ip, median survival T/C
Test: NCI In Vivo Anticancer Drug Screen. Data for tumor model B16 Melanoma (intraperitoneal) in B6D2F1 (BDF1) mice
Settings: endpoint: median survival time, higher = longer survival
Summary of the method: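 In this screen, activity was judged from survival or tumor size in treated versus vehicle-treated tumor-bearing mice, reported as T/C.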

[1] = dose: 6.25 mg/kg/injection, schedule: Q01DX009 (ip), vehicle: saline with Tween-80
[2] = dose: 12.5 mg/kg/injection, schedule: Q01DX009 (ip), vehicle: saline with Tween-80
[3] = dose: 25.0 mg/kg/injection, schedule: Q01DX009 (ip), vehicle: saline with Tween-80
[4] = dose: 50.0 mg/kg/injection, schedule: Q01DX009 (ip), vehicle: saline with Tween-80
[5] = dose: 100.0 mg/kg/injection, schedule: Q01DX009 (ip), vehicle: saline with Tween-80
[6] = dose: 200.0 mg/kg/injection, schedule: Q01DX009 (ip), vehicle: saline with Tween-80
[7] = dose: 100.0 mg/kg/injection, schedule: Q01DX009 (ip), vehicle: Klucel (hydroxypropylcellulose) (HPC)
[8] = dose: 200.0 mg/kg/injection, schedule: Q01DX009 (ip), vehicle: Klucel (hydroxypropylcellulose) (HPC)
[9] = dose: 50.0 mg/kg/injection, schedule: Q04DX003 (ip), vehicle: saline with Tween-80
[10] = dose: 100.0 mg/kg/injection, schedule: Q04DX003 (ip), vehicle: saline with Tween-80
[11] = dose: 200.0 mg/kg/injection, schedule: Q04DX003 (ip), vehicle: saline with Tween-80
[12] = dose: 50.0 mg/kg/injection, schedule: Q01DX009 (ip), vehicle: Klucel (hydroxypropylcellulose) (HPC)
[13] = dose: 100.0 mg/kg/injection, schedule: Q01DX009 (ip), vehicle: saline
[14] = dose: 6.25 mg/kg/injection, schedule: Q01DX009 (ip), vehicle: saline
[15] = dose: 12.5 mg/kg/injection, schedule: Q01DX009 (ip), vehicle: saline
[16] = dose: 25.0 mg/kg/injection, schedule: Q01DX009 (ip), vehicle: saline
[17] = dose: 12.5 mg/kg/injection, schedule: Q01DX009 (ip), vehicle: Klucel (hydroxypropylcellulose) (HPC)

CCOC(=O)CN1CCC2CC1c1c([nH]c3ccccc13)C2c1cc2c(cc1OC)N(C)C1C(O)(C(=O)OC)C(OC(C)=O)C3(CC)C=CCN4CCC21C43 (centres undefined)
T/C (dose: 0.06 mg/kg/injection, schedule: Q01DX009 (ip), vehicle: other): 96 % of control | T/C (dose: 0.13 mg/kg/injection, schedule: Q01DX009 (ip), vehicle: other): 108 % of control | T/C (dose: 0.5 mg/kg/injection, schedule: Q01DX009 (ip), vehicle: other): 96 % of control | T/C (dose: 1.0 mg/kg/injection, schedule: Q01DX009 (ip), vehicle: other): 104 % of control | T/C (dose: 2.0 mg/kg/injection, schedule: Q01DX009 (ip), vehicle: other): 117 % of control

Clc1nc2ccccc2nc1CI
T/C (dose: 0.04 mg/kg/injection, schedule: Q01DX009 (ip), vehicle: saline with Tween-80): 97 % of control | T/C (dose: 0.08 mg/kg/injection, schedule: Q01DX009 (ip), vehicle: saline with Tween-80): 97 % of control | T/C (dose: 0.15 mg/kg/injection, schedule: Q01DX009 (ip), vehicle: saline with Tween-80): 97 % of control | T/C (dose: 0.3 mg/kg/injection, schedule: Q01DX009 (ip), vehicle: saline with Tween-80): 92 % of control | T/C (dose: 0.31 mg/kg/injection, schedule: Q01DX009 (ip), vehicle: saline with Tween-80): 94 % of control | T/C (dose: 0.62 mg/kg/injection, schedule: Q01DX009 (ip), vehicle: saline with Tween-80): 91 % of control | T/C (dose: 1.25 mg/kg/injection, schedule: Q01DX009 (ip), vehicle: saline with Tween-80): 100 % of control | T/C (dose: 2.5 mg/kg/injection, schedule: Q01DX009 (ip), vehicle: saline with Tween-80): 97 % of control | T/C (dose: 5.0 mg/kg/injection, schedule: Q01DX009 (ip), vehicle: saline with Tween-80): 88 % of control

CCOC(=O)c1ccc(Nc2sc(C(=O)c3ccc(Br)cc3)c(N)c2C#N)cc1
T/C [1]: 92 % of control | T/C [2]: 87 % of control | T/C [3]: 88 % of control | T/C [4]: 86 % of control

c1cc[c]([Pb]([S]c2nc3ccccc3[nH]2)([c]2ccccc2)[c]2ccccc2)cc1
T/C (dose: 0.75 mg/kg/injection, schedule: Q01DX009 (ip), vehicle: Klucel (hydroxypropylcellulose) (HPC)): 100 % of control | T/C (dose: 1.5 mg/kg/injection, schedule: Q01DX009 (ip), vehicle: Klucel (hydroxypropylcellulose) (HPC)): 94 % of control

CCOC1c2cc(OC)ccc2C(=O)CCN1S(=O)(=O)c1ccc(C)cc1 (centres undefined)
T/C (dose: 100.0 mg/kg/injection, schedule: Q04DX003 (ip), vehicle: Klucel (hydroxypropylcellulose) (HPC)): 93 % of control | T/C (dose: 200.0 mg/kg/injection, schedule: Q04DX003 (ip), vehicle: Klucel (hydroxypropylcellulose) (HPC)): 102 % of control | T/C (dose: 400.0 mg/kg/injection, schedule: Q04DX003 (ip), vehicle: Klucel (hydroxypropylcellulose) (HPC)): 102 % of control

CC(C)=CCc1c2c(c(O)c3c(=O)c(-c4ccc(O)c(O)c4)coc13)C=CC(C)(C)O2
T/C [3]: 100 % of control | T/C [4]: 94 % of control | T/C [5]: 94 % of control | T/C [6]: 100 % of control

Cc1ncc([N+](=O)[O-])n1CCSC(N)=O
T/C [2]: 97 % of control and 99 % of control | T/C [3]: 95 % of control and 102 % of control | T/C [4]: 101 % of control | T/C [5]: 97 % of control and 101 % of control | T/C [6]: 91 % of control and 96 % of control | T/C (dose: 400.0 mg/kg/injection, schedule: Q01DX009 (ip), vehicle: saline with Tween-80): 92 % of control

COc1ccc(C(=O)/C=C/c2ccc3c(c2)OCO3)cc1OC
T/C [7]: 96 % of control | T/C [8]: 93 % of control

COC(=O)C(C(=O)OC)C(Br)(OC(C)=O)OC(C)=O
T/C [9]: 105 % of control | T/C [10]: 95 % of control | T/C [11]: 99 % of control | T/C (dose: 400.0 mg/kg/injection, schedule: Q04DX003 (ip), vehicle: saline with Tween-80): 103 % of control

Cc1cc2c(cc1C)NC(C)CC(=O)N2 (centres undefined)
T/C [12]: 106 % of control | T/C [7]: 108 % of control | T/C [8]: 106 % of control

Cc1ccc(S(=O)(=O)Cl)cc1Cl
T/C [3]: 108 % of control | T/C [4]: 97 % of control | T/C [5]: 86 % of control

COc1ccc(N=C=S)cc1N=C=S
T/C [1]: 102 % of control | T/C (dose: 6.25 mg/kg/injection, schedule: Q04DX003 (ip), vehicle: saline with Tween-80): 105 % of control | T/C [2]: 92 % of control | T/C (dose: 12.5 mg/kg/injection, schedule: Q04DX003 (ip), vehicle: saline with Tween-80): 115 % of control | T/C [3]: 100 % of control | T/C (dose: 25.0 mg/kg/injection, schedule: Q04DX003 (ip), vehicle: saline with Tween-80): 113 % of control

CNC=O
T/C [13]: 99 % of control | T/C (dose: 200.0 mg/kg/injection, schedule: Q01DX009 (ip), vehicle: saline): 110 % of control

O=C(O)/C(Br)=C/c1ccccc1
T/C [9]: 107 % of control | T/C [10]: 112 % of control | T/C [11]: 102 % of control

CN1CCC(=C(C#N)C#N)CC1
T/C (dose: 3.13 mg/kg/injection, schedule: Q04DX003 (ip), vehicle: saline): 105 % of control | T/C (dose: 6.25 mg/kg/injection, schedule: Q04DX003 (ip), vehicle: saline): 94 % of control | T/C (dose: 12.5 mg/kg/injection, schedule: Q04DX003 (ip), vehicle: saline): 110 % of control

CC(C)CC(NC(=O)C(N)C(C)C)C(=O)NC(CCCCN)C(=O)Nc1ccc(N(CCCl)CCCl)cc1 (centres undefined)
T/C (dose: 0.74 mg/kg/injection, schedule: Q01DX009 (ip), vehicle: saline): 105 % of control | T/C (dose: 1.49 mg/kg/injection, schedule: Q01DX009 (ip), vehicle: saline): 109 % of control and 120 % of control | T/C (dose: 5.95 mg/kg/injection, schedule: Q01DX009 (ip), vehicle: saline): 159 % of control and 182 % of control

Cc1cc(C(C)(CC(C)C)c2ccc(O)c(C)c2)ccc1O
T/C [3]: 107 % of control | T/C [4]: 94 % of control

Cc1ccc(Nc2c3ccccc3nc3ccccc23)cc1
T/C (dose: 18.0 mg/kg/injection, schedule: Q01DX009 (ip), vehicle: saline with Tween-80): 123 % of control | T/C (dose: 18.0 mg/kg/injection, schedule: Q04DX003 (ip), vehicle: saline with Tween-80): 105 % of control | T/C (dose: 37.5 mg/kg/injection, schedule: Q04DX003 (ip), vehicle: saline with Tween-80): 110 % of control | T/C (dose: 75.0 mg/kg/injection, schedule: Q04DX003 (ip), vehicle: saline with Tween-80): 105 % of control

O=S(=O)(Nc1ccccc1)c1ccc(C2CC3(Cl)C(Cl)=C(Cl)C2(Cl)C3(Cl)Cl)cc1 (centres undefined)
T/C [7]: 100 % of control | T/C [8]: 87 % of control

CCN(CC)CCOC(=O)C(c1ccccc1)C1CCCCC1 (centres undefined)
T/C [14]: 99 % of control | T/C [15]: 108 % of control | T/C [16]: 108 % of control | T/C (dose: 50.0 mg/kg/injection, schedule: Q01DX009 (ip), vehicle: saline): 118 % of control | T/C [13]: 110 % of control

O=C1C=CC(=C(c2ccccc2)c2ccccc2)C=C1
T/C (dose: 6.25 mg/kg/injection, schedule: Q01DX009 (ip), vehicle: Klucel (hydroxypropylcellulose) (HPC)): 96 % of control | T/C [17]: 100 % of control | T/C (dose: 12.5 mg/kg/injection, schedule: Q04DX003 (ip), vehicle: Klucel (hydroxypropylcellulose) (HPC)): 96 % of control | T/C (dose: 25.0 mg/kg/injection, schedule: Q01DX009 (ip), vehicle: Klucel (hydroxypropylcellulose) (HPC)): 96 % of control | T/C (dose: 25.0 mg/kg/injection, schedule: Q04DX003 (ip), vehicle: Klucel (hydroxypropylcellulose) (HPC)): 100 % of control

CCOC12c3cc(OC)ccc3N(S(=O)(=O)c3ccc(C)cc3)CC1C2(Br)Br (centres undefined)
T/C [12]: 103 % of control | T/C [7]: 93 % of control | T/C [8]: 89 % of control

COc1cc(OC)c(OC)cc1/C=C\c1ccc2ccccc2[n+]1C
T/C [14]: 93 % of control | T/C [15]: 100 % of control | T/C [16]: 97 % of control

CC(=O)c1ccc(Oc2ccc(/C(C)=N\N=C(N)N)cc2)cc1
T/C [2]: 95 % of control | T/C [3]: 92 % of control

C[C@@H]1CC[C@@]2(NC1)O[C@H]1C[C@H]3[C@@H]4CC=C5C[C@@H](O)CC[C@]5(C)[C@H]4CC[C@]3(C)[C@H]1[C@@H]2C
T/C [17]: 95 % of control
